In patent publication US8129370B2, “Use of oxicam compounds” (Dritte PatentPortfolio Beteiligungsgesellschaft MBH & Co. KG, priority 2003, dated 2012):
Each block holds one compound with its values, some of them ahead of it.

Assays:
[1] = tested on: amyloid precursor protein (APP); conditions: cited from earlier work
Aβ42 = conditions: WO 01/78721 A1; cited from earlier work
COX-2 [2] = molecular target: T1, COX-2 (Homo sapiens, UniProt P35354); assay: inhibition of COX-2 (isozyme of the eicosanoid metabolism); type: biochemical
T1 construct: LPS-stimulated Mono Mac 6-cells (COX-2); endogenous in cells; host or cells: LPS-stimulated Mono Mac 6 cells
T1 sequence (P35354 18-604): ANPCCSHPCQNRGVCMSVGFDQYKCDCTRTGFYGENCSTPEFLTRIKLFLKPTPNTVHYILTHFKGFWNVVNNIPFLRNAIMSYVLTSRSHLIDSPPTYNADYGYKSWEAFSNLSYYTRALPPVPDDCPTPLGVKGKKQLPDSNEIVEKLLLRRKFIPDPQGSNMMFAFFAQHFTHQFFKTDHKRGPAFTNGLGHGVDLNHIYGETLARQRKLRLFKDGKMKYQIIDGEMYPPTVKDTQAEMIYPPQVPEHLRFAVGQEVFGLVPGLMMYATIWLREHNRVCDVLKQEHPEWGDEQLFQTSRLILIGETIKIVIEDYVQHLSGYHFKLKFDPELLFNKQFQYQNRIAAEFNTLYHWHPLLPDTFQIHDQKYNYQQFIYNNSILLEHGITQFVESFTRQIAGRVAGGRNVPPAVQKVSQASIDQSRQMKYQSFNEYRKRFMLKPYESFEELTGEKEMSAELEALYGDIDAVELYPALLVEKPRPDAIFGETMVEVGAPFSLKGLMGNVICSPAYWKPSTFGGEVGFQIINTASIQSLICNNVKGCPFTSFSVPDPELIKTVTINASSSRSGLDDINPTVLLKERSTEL

COX-2 [3] = molecular target: T1, COX-2; assay: inhibition of eicosanoid formation in LPS-stimulated Mono Mac 6-cells (COX-2); type: cell-based; conditions: FIG. 7
plasma half-life = conditions: in vivo
[4] = Pruss et al. 1989; cited from earlier work
[5] = cited from earlier work
COX-1 [6] = molecular target: T2, COX-1 (Homo sapiens, UniProt P23219); assay: inhibition of COX-1 (isozyme of the eicosanoid metabolism); type: biochemical; set-up: eicosanoid formation in HEL cells (COX-1); endogenous in cells; host or cells: HEL cells
T2 sequence (P23219 24-599): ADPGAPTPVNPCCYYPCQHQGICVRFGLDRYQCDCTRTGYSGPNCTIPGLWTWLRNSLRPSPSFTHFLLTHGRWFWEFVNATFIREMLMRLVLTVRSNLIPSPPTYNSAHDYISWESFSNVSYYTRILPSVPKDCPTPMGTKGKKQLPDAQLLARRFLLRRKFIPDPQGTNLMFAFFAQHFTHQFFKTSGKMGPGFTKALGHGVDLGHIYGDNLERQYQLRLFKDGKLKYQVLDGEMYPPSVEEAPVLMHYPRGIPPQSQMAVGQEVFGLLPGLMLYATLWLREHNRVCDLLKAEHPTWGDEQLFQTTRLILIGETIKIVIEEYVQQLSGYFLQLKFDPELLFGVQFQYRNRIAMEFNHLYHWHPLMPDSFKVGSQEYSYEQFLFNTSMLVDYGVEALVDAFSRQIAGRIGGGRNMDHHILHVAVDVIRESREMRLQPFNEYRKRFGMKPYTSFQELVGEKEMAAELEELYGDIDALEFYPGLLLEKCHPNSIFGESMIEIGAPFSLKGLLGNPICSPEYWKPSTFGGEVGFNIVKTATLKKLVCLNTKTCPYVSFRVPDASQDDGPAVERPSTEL

COX-1 [7] = molecular target: T2, COX-1; assay: inhibition of eicosanoid formation in HEL cells (COX-1); type: cell-based; set-up: eicosanoid formation in HEL cells (COX-1); endogenous in cells; host or cells: HEL cells; conditions: FIG. 7

SMILES: CC(C)Cc1ccc(C(C)C(=O)O)cc1 (stereo not shown) [Ibuprofen]
portion of the amyloid β-42 peptide [1]: lowered
portion of the non-amyloidogenic soluble APP [1]: increased

SMILES: Cc1cc(NC(=O)C2=C(O)c3ccccc3S(=O)(=O)N2C)no1 [isoxicam]
influence on the expression of Aβ42 (Aβ42): do not influence the expression of Aβ42 and even increase the expression thereof, respectively

inhibition of COX-2 (COX-2 [2]): inhibits
inhibition of the eicosanoid formation (COX-2 [3]): inhibition
plasma half-life (plasma half-life): short
inhibition of COX-1 (COX-1 [6]): inhibits
inhibition of the eicosanoid formation (COX-1 [7]): inhibition
SMILES: CN1C(C(=O)Nc2ccccn2)=C(O)c2sc(Cl)cc2S1(=O)=O [lornoxicam]
crossing the blood-brain barrier [4]: not capable of crossing the blood-brain barrier
severe undesired events reported ([5]; in one million of prescriptions): less than 10
gastro-intestinal and other tolerance ([5]; in vivo): good
side-effects found during observation of usage ([5]; in vivo): below 0.05%

SMILES: CN1C(C(=O)Nc2ccccn2)=C(O)c2ccccc2S1(=O)=O [peroxicam]
influence on the expression of Aβ42 (Aβ42): do not influence the expression of Aβ42 and even increase the expression thereof, respectively
